Molecular target: CDK7/CycH/MNAT1 (Homo sapiens (Human), UniProt P50613)
Assay: Biochemical assay for CDK7 (TR-FRET kinase assay)
Settings: 60 min pre-incubation, 1 mM ATP; for inhibition at 10 µM / % inhibition @ 10 μM: 10 μM compound; for inhibition at 10 µM: read-out: % inhibition @ 10 μM; for IC50: read-out: IC50
Protocol: The ability of compounds to inhibit CDK7 kinase activity was tested in a TR-FRET assay using 5 nM of CDK7/CycH/MNAT1 obtained from Invitrogen, USA. Test compounds were pre-incubated with the kinase at room temperature for 60 min. After incubation, substrate mix [100 nM Ultra-light MBP (Perkin Elmer, USA) and 1 mM ATP (Sigma)] was added. The above reaction was stopped by the addition of 40 mM EDTA after 60 minutes of kinase reaction. 1 nM Eu-labelled antiphospho-MBP antibody [Perkin Elmer, USA] was added, mixed well and the fluorescence emission at 615 nm and 665 nm [excitation at 340 nm] was measured. The final DMSO concentration in the assay was 1%. For IC50 determination, appropriate concentrations were made by ⅓^rd serial dilutions of 10 mM DMSO stock solution of test compound. All the fluorescence measurements were made in a Victor 3 Multilabel Counter [Perkin Elmer, USA]. The IC50 was determined by fitting the dose response data to sigmoidal curve fitting equation using GraphPad Prism software V5. To identify compounds that inhibit CDK7 irreversibly, time depended inhibition studies were carried by pre-incubating compound with the enzyme at three time points (20, 60 and 180 min) and carrying out assay as described above.

Sequence of CDK7/CycH/MNAT1 (P50613 whole entry): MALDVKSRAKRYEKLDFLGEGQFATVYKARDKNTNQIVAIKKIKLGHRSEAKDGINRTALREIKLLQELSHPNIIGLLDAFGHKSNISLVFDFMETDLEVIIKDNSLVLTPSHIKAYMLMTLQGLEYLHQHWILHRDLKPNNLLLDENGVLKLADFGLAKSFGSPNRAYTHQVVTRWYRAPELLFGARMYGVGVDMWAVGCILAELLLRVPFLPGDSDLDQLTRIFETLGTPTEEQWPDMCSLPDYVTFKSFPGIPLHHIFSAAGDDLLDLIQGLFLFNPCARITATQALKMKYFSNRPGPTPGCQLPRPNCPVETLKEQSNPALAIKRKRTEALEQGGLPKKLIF
Sequence of CDK7/CycH/MNAT1 (P51946 whole entry partner): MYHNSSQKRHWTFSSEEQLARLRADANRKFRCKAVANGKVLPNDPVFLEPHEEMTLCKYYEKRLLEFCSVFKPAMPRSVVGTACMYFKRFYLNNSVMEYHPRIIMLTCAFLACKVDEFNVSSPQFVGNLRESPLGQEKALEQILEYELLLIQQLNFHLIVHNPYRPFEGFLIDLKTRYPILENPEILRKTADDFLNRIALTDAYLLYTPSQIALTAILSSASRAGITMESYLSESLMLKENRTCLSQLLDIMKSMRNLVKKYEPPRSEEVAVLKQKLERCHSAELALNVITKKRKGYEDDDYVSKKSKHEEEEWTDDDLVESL
Sequence of CDK7/CycH/MNAT1 (P51948 whole entry partner): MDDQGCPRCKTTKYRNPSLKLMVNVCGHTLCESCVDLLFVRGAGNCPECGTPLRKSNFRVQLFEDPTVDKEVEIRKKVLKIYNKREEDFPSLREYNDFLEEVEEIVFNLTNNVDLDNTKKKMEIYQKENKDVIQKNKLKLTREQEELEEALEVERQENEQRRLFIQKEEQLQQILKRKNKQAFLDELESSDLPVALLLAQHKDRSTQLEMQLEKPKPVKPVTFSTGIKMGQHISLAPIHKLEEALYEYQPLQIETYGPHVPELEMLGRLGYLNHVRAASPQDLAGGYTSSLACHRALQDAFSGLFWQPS

Row | Compound | inhibition at 10 µM | IC50 | % inhibition @ 10 μM
1 | C=CC(=O)N[C@H]1CC[C@@H](C(=O)Nc2cccc(CNc3nc(NC4CCCC(O)C4)nc4c(C(C)C)cnn34)c2)CC1 (single isomer, unassigned) [Compound 10, 4-acrylamido-N-(3-(((2-((3-hydroxycyclohexyl)amino)-8-isopropylpyrazolo[1,5-a][1,3,5]triazin-4-yl)amino)methyl)phenyl)cyclohexane-1-carboxamide] | 89% | 0.3 to 1 µM | 
2 | C=CC(=O)N1CCC(C(=O)Nc2cccc(CNc3nc(NC4CCCC(O)C4)nc4c(C(C)C)cnn34)c2)C1 (single isomer, unassigned) [Compound 12, 1-acryloyl-N-(3-(((2-((3-hydroxycyclohexyl)amino)-8-isopropylpyrazolo[1,5-a][1,3,5]triazin-4-yl)amino)methyl)phenyl)pyrrolidine-3-carboxamide] | 92% | 0.3 to 1 µM | 
3 | CC(C)=CC(=O)N1CCC1C(=O)Nc1cccc(CNc2nc(NC3CCOCC3)nc3c(C(C)C)cnn23)c1 (stereo not shown) [Compound 17, N-(3-(((8-isopropyl-2-((tetrahydro-2H-pyran-4-yl)amino)pyrazolo[1,5-a][1,3,5]triazin-4-yl)amino)methyl)phenyl)-1-(3-methylbut-2-enoyl)azetidine-2-carboxamide] | 84% | > 1 µM | 
4 | C=CC(=O)N1CC[C@@H]1C(=O)Nc1cccc(CNc2nc(NC3CCOCC3)nc3c(C(C)C)cnn23)c1 [Compound 19, (R)-1-acryloyl-N-(3-(((8-isopropyl-2-((tetrahydro-2H-pyran-4-yl)amino)pyrazolo[1,5-a][1,3,5]triazin-4-yl)amino)methyl)phenyl)azetidine-2-carboxamide] | 100% | < 0.3 µM | 
5 | C=CC(=O)NC1CCCC(C(=O)Nc2cccc(CNc3nc(NC4CCOCC4)nc4c(C(C)C)cnn34)c2)C1 (stereo not shown) [Compound 22, 3-acrylamido-N-(3-(((8-isopropyl-2-((tetrahydro-2H-pyran-4-yl)amino)pyrazolo[1,5-a][1,3,5]triazin-4-yl)amino)methyl)phenyl)cyclohexane-1-carboxamide] | 98% | < 0.3 µM | 
6 | C=CC(=O)N1CCOCC1C(=O)Nc1ccc(CC)c(CNc2nc(NC3CCOCC3)nc3c(C(C)C)cnn23)c1 (stereo not shown) [Compound 26, 4-acryloyl-N-(4-ethyl-3-(((8-isopropyl-2-((tetrahydro-2H-pyran-4-yl)amino)pyrazolo[1,5-a][1,3,5]triazin-4-yl)amino)methyl)phenyl)morpholine-3-carboxamide] | 95% | 0.3 to 1 µM | 
7 | C=CC(=O)N1CCC1C(=O)Nc1cc(CNc2nc(NC3CCOCC3)nc3c(C(C)C)cnn23)ccc1C (stereo not shown) [Compound 28, 1-acryloyl-N-(5-(((8-isopropyl-2-((tetrahydro-2H-pyran-4-yl)amino)pyrazolo[1,5-a][1,3,5]triazin-4-yl)amino)methyl)-2-methylphenyl)azetidine-2-carboxamide] | 99% | < 0.3 µM | 
8 | C=CC(=O)N1CCC1C(=O)Nc1ccc(F)c(CNc2nc(NC3CCOCC3)nc3c(C(C)C)cnn23)c1 (stereo not shown) [Compound 29, 1-acryloyl-N-(4-fluoro-3-(((8-isopropyl-2-((tetrahydro-2H-pyran-4-yl)amino)pyrazolo[1,5-a][1,3,5]triazin-4-yl)amino)methyl)phenyl)azetidine-2-carboxamide] | 98% | < 0.3 µM | 
9 | C=CC(=O)N1CCC1C(=O)Nc1cccc(CNc2nc(NC3CCOCC3)nc3c(C(C)C)cnn23)c1F (stereo not shown) [Compound 30, 1-acryloyl-N-(2-fluoro-3-(((8-isopropyl-2-((tetrahydro-2H-pyran-4-yl)amino)pyrazolo[1,5-a][1,3,5]triazin-4-yl)amino)methyl)phenyl)azetidine-2-carboxamide] | 98% | < 0.3 µM | 
10 | C=CC(=O)N1CCC1C(=O)Nc1cc(F)cc(CNc2nc(NC3CCOCC3)nc3c(C(C)C)cnn23)c1 (stereo not shown) [Compound 31, 1-acryloyl-N-(3-fluoro-5-(((8-isopropyl-2-((tetrahydro-2H-pyran-4-yl)amino)pyrazolo[1,5-a][1,3,5]triazin-4-yl)amino)methyl)phenyl)azetidine-2-carboxamide] | 100% | < 0.3 µM | 
11 | C=CC(=O)N1CCC(C(=O)Nc2cc(F)cc(CNc3nc(NC4CCOCC4)nc4c(C(C)C)cnn34)c2)C1 (stereo not shown) [Compound 33, 1-acryloyl-N-(3-fluoro-5-(((8-isopropyl-2-((tetrahydro-2H-pyran-4-yl)amino)pyrazolo[1,5-a][1,3,5]triazin-4-yl)amino)methyl)phenyl)pyrrolidine-3-carboxamide] | 86% | 0.3 to 1 µM | 
12 | C=CC(=O)N1CCCCC1C(=O)Nc1ccc(C)c(CNc2nc(NC3CCOCC3)nc3c(C(C)C)cnn23)c1 (stereo not shown) [Compound 34, 1-acryloyl-N-(3-(((8-isopropyl-2-((tetrahydro-2H-pyran-4-yl)amino)pyrazolo[1,5-a][1,3,5]triazin-4-yl)amino)methyl)-4-methylphenyl)piperidine-2-carboxamide] | 73% | > 1 µM | 

The next lines start with the values.

Row | inhibition at 10 µM | IC50 | % inhibition @ 10 μM | Compound
13 |  | 0.3 to 1 µM | 89% | C=CC(=O)N[C@H]1CC[C@@H](C(=O)Nc2cccc(CNc3nc(NC4CCCC(O)C4)nc4c(C(C)C)cnn34)c2)CC1 (single isomer, unassigned) [Compound 11, 4-acrylamido-N-(3-(((2-((3-hydroxycyclohexyl)amino)-8-isopropylpyrazolo[1,5-a][1,3,5]triazin-4-yl)amino)methyl)phenyl)cyclohexane-1-carboxamide]
14 | 88% | 0.3 to 1 µM |  | C=CC(=O)N[C@H]1CC[C@@H](C(=O)Nc2cccc(CNc3nc(OC4CCOCC4F)nc4c(C(C)C)cnn34)c2)CC1 (single isomer, unassigned) [Compound 98, 4-acrylamido-N-(3-(((2-((3-fluorotetrahydro-2H-pyran-4-yl)oxy)-8-isopropylpyrazolo[1,5-a][1,3,5]triazin-4-yl)amino)methyl)phenyl)cyclohexane-1-carboxamide]
15 |  | > 1 µM | 82% | C=CC(=O)N[C@H]1CC[C@@H](C(=O)Nc2cccc(CNc3nc(OC4CCOCC4F)nc4c(C(C)C)cnn34)c2)CC1 (single isomer, unassigned) [Compound 99, 4-acrylamido-N-(3-(((2-((3-fluorotetrahydro-2H-pyran-4-yl)oxy)-8-isopropylpyrazolo[1,5-a][1,3,5]triazin-4-yl)amino)methyl)phenyl)cyclohexane-1-carboxamide]
16 | 91% | > 1 µM |  | C=CC(=O)N[C@H]1CC[C@@H](C(=O)Nc2cccc(CNc3nc(NC4CCOCC4)nc4c(C(C)C)cnn34)c2)CC1 [Compound 7, (1,4-cis)-4-acrylamido-N-(3-(((8-isopropyl-2-((tetrahydro-2H-pyran-4-yl)amino)pyrazolo[1,5-a][1,3,5]triazin-4-yl)amino)methyl)phenyl)cyclohexane-1-carboxamide]
17 | 85% | > 1 µM |  | C=CC(=O)N[C@H]1CC[C@@H](C(=O)Nc2cccc(CNc3nc(N[C@H]4CC[C@H](O)CC4)nc4c(C(C)C)cnn34)c2)CC1 [Compound 9, (1,4-cis)-4-acrylamido-N-(3-(((2-(((1r,4r)-4-hydroxycyclohexyl)amino)-8-isopropylpyrazolo[1,5-a][1,3,5]triazin-4-yl)amino)methyl)phenyl)cyclohexane-1-carboxamide]
18 |  | < 0.3 µM |  | C=CC(=O)N1CCCCC1C(=O)Nc1cccc(CNc2nc(N[C@H]3CCCOC3)nc3c(C(C)C)cnn23)c1 (stereo partly drawn) [Compound 16, 1-acryloyl-N-(3-(((8-isopropyl-2-(((S)-tetrahydro-2H-pyran-3-yl)amino)pyrazolo[1,5-a][1,3,5]triazin-4-yl)amino)methyl)phenyl)piperidine-2-carboxamide]
19 | 98% | < 0.3 µM |  | C=CC(=O)N1CCOC(C(=O)Nc2cccc(CNc3nc(NC4CCOCC4)nc4c(C(C)C)cnn34)c2)C1 (stereo not shown) [Compound 23, 4-acryloyl-N-(3-(((8-isopropyl-2-((tetrahydro-2H-pyran-4-yl)amino)pyrazolo[1,5-a][1,3,5]triazin-4-yl)amino)methyl)phenyl)morpholine-2-carboxamide]
20 | 99% | < 0.3 µM |  | C#CC(=O)N1CCOCC1C(=O)Nc1cccc(CNc2nc(NC3CCOCC3)nc3c(C(C)C)cnn23)c1 (stereo not shown) [Compound 25, N-(3-(((8-isopropyl-2-((tetrahydro-2H-pyran-4-yl)amino)pyrazolo[1,5-a][1,3,5]triazin-4-yl)amino)methyl)phenyl)-4-propioloylmorpholine-3-carboxamide]
21 | 100% | < 0.3 µM |  | C=CC(=O)N1CCC1C(=O)Nc1ccc(C)c(CNc2nc(NC3CCOCC3)nc3c(C(C)C)cnn23)c1 (stereo not shown) [Compound 27, 1-acryloyl-N-(3-(((8-isopropyl-2-((tetrahydro-2H-pyran-4-yl)amino)pyrazolo[1,5-a][1,3,5]triazin-4-yl)amino)methyl)-4-methylphenyl)azetidine-2-carboxamide]
22 | 99% | < 0.3 µM |  | C=CC(=O)N1CCCCC1C(=O)Nc1cccc(CNc2nc(NC3CCOCC3)nc3c(C(C)C)cnn23)c1F (stereo not shown) [Compound 35, 1-acryloyl-N-(2-fluoro-3-(((8-isopropyl-2-((tetrahydro-2H-pyran-4-yl)amino)pyrazolo[1,5-a][1,3,5]triazin-4-yl)amino)methyl)phenyl)piperidine-2-carboxamide]
